The test system of series [1] is Human atrial cardiac fibroblasts (HCF). Put plainly: In vitro fibrosis assay, TGFβ-stimulated HCF (qRT-PCR). The settings on record: TGFβ 10 ng/mL, 24 hours (FIG. 9). The format is cell-based. The procedure:
(§1) Human dermal fibroblasts (HDF, Cell applications, 106-05A) were cultured in Dulbecco's modified Eagle's medium (DMEM, ThermoFisher Scientific, 11995065) supplemented with 10% (v/v) heat-inactivated fetal bovine serum (FBS, ThermoFisher Scientific, 10082147), 1% penicillin/streptomycin and 1 mL polymyxin B and were maintained at 37° C. in humidified atmosphere of 5% CO2 in air. Human atrial cardiac fibroblasts (HCF, Innoprot, P10454) were cultured in fibroblast medium (Innoprot, P60108) supplemented with fetal bovine serum, fibroblast growth supplement and penicillin/streptomycin and were maintained at 37° C. in humidified atmosphere of 5% CO2 in air.
Following 1-9 passages, HDF and HCF were seeded at 0.3×10^6 cells/well in 1 mL cell medium in 12-well plates and incubated overnight at 37° C. in humidified atmosphere of 5% CO2 in air. Next, cells were put on serum starved medium (0.1% FBS) for 8 hours and then stimulated for 24 hours with either PBS, active compound (4-32 μM) or non-active compound (NA1, NA2; 4-32 μM) on top of TGFβ (10 ng/mL, Peprotech, 100-21). […] Next, cells were lysed using 100 μL lysis buffer RA1 (of RNA isolation kit below) supplemented with β-mercapto-ethanol (100:1), scraped with a cell scraper and transferred to centrifuge tubes to be stored at −20° C. for a maximum of 2 weeks before RNA isolation.
RNA was extracted using Nucleospin RNA XS (Machery Nagel) according to the manufacturer's instructions. For cDNA synthesis, total RNA was added to a solution containing buffer with random hexamers and reverse transcriptase enzyme. The PCR was performed using the following parameters: 10 minutes at 25° C., 30 minutes at 48° C., 5 minutes at 95° C. RT-qPCR on the cDNA samples was performed using Taqman Universal PCR Master Mix (Applied Biosystems) and Taqman primers according to the manufacturer's instructions. […] Expression levels were calculated using the comparative cycle method and expressed as fold change to appropriate (background) control. […]
(Quantitative PCR measures a nucleic acid by following its amplification.)

The subject of a further series is C57BL/6N mice. Description: In vivo acute toxicity study. The settings on record: accumulative i.p. doses, hematoxylin and eosin staining (FIG. 15). On the procedure:
An acute toxicity study was performed on C57BL/6N mice using accumulative doses of compound 1 (n=3) or vehicle (n=3, 10% DMSO). On day 1, mice received 0.4 mg/kg cpd 1, day 2 1.2 mg/kg, day 3 4 mg/kg, day 4 4 mg/kg by intraperitoneal injection. At day 4, 1 hour after injection of 4 mg/kg, the mice were sacrificed and the hearts, liver, and kidney excised. The histology of the organs was evaluated by hematoxylin and eosin staining.

For the next series, the system named is C57BL/6N male mice. Description: In vivo anti-fibrotic capacity, Angiotensin II left ventricular remodeling mouse model. On the procedure: Left ventricular (LV) remodeling was induced in 13-week old C57BL/6N male mice by Angiotensin II (AngII, 1000 ng/kg/min, Sigma Aldrich) using a subcutaneous micro-osmotic pump (model 1004, Alzet). Next to AngII, the mice were also given a second s.c. micro-osmotic pump filled with selected hit compound (83 μg/kg/h) or vehicle. Control groups (sham, compound alone, AngII alone) were also implemented. After 4 weeks of treatment, mice were euthanized and hearts were collected.
Hearts were fixed and embedded in paraffin. The LV interstitial collagen fraction was determined in Masson trichrome blue-stained areas. Cardiomyocyte outlines were stained with antibodies specific for laminin (NB300-144; Novus Biologicals), and cardiomyocyte cross-sectional area was determined by averaging 20 representative cardiomyocytes per section per animal (5 sections/animal). Data was skewed, therefore log transformation was performed. Endothelial cells were stained with isolectin B4 (Vector Laboratories) and capillary density was determined as the number of capillaries per 100 cardiomyocytes by averaging the number of capillaries per cardiomyocytes on 5 images per animal. Capillaries and cardiomyocytes were counted (by an investigator blinded to the treatment protocol) per section per animal (5 sections/animal). Capillaries were normalized to tissue area to calculate capillary density.

Series [2] has as its system Human dermal fibroblasts (HDF). Put plainly: In vitro fibrosis assay, TGFβ-stimulated HDF (qRT-PCR). The format is cell-based. The settings on record: TGFβ 10 ng/mL, 4-32 μM (FIGS. 8C-8F). The procedure:
as §1
Following 1-9 passages, HDF and HCF were seeded at 0.3×10^6 cells/well in 1 mL cell medium in 12-well plates and incubated overnight at 37° C. in humidified atmosphere of 5% CO2 in air. Next, cells were put on serum starved medium (0.1% FBS) for 8 hours and then stimulated for 24 hours with either PBS, active compound (4-32 μM) or non-active compound (NA1, NA2; 4-32 μM) on top of TGFβ (10 ng/mL, Peprotech, 100-21). […]
RNA was extracted using Nucleospin RNA XS (Machery Nagel) according to the manufacturer's instructions. […] Expression levels were calculated using the comparative cycle method and expressed as fold change to appropriate (background) control. […]

Series [3] is described as follows: Metabolic stability, human liver microsomes. The format is in vitro ADME. On the procedure:
A mixture of 713 μL milliQ water (Millipore, MA, USA), 200 μL 0.5 M phosphate buffer (pH 7.4, BD Diagnostic Systems, MD, USA), 50 μL NADPH regenerating system solution A (BD Biosciences, CA, USA), 10 μL NADPH regenerating system solution B (BD Biosciences, CA, USA) and 2 μL compound (5 mM in DMSO) was prepared and heated for 5 min at 37° C. Twenty-five μL of liver microsomes (0.5 mg protein/mL, Corning B.V. Life Sciences, Amsterdam, Netherlands) was added to the mixture and 20 μL samples were withdrawn at 0, 0.25, 0.5 and 1, 2, 4, 6 and 24 hours. Eighty μL (4×20 μL) of cold acetonitrile (Sigma-Aldrich, MO, USA) was added to the samples on ice for 10 min. Afterwards, the mixtures were centrifuged at 13,000 rpm for 5 min at 4° C. Seventy-five μL of an acetonitrile/water (10/90) mixture was added to 25 μL supernatant and the obtained samples were analyzed by LC-MS/MS (Waters Acquity H-class UPLC system with ion trap mass spectrometer, Bruker Daltonics Esquire 3000 plus, and Agilent 1100 Series LC system) in triplicate.

SMILES strings stand for the structures.

As for `O=C(NC1CC1)C(Sc1nc2ccccc2c(=O)n1C1CCCC1)c1ccccc1` (centres unmarked) [Compound 1], the “col1a1 levels in comparison with TGFβ control” value in series [1] is on record as “significantly decrease col1a1 levels”. Further, in the series with C57BL/6N mice, the “histology of heart, liver and kidney (treated vs control group)” value was “no significant difference in structures of cardiac, liver and renal cells”. For the same compound, the “capillary density compared to vehicle” value with C57BL/6N male mice (4 weeks (FIG. 14D)) is “significantly increased capillary density”. The “myocardial fibrosis compared to angiotensin II/vehicle” value in the series on C57BL/6N male mice (AngII 1000 ng/kg/min + compound 83 μg/kg/h s.c. pump, 4 weeks (FIG. 14A)) was “significantly attenuated myocardial fibrosis”. In the series on C57BL/6N male mice (add-on to angiotensin II, 4 weeks (FIG. 14B)), the “HW:BW ratio” value is listed as “no effect”. For the same compound, the “cardiomyocyte cross sectional area compared to angiotensin II/vehicle” value in the series on C57BL/6N male mice (add-on to angiotensin II, 4 weeks (FIG. 14C)) is on record as “did increase”.
Consider `Cc1sc2nc(SC(C)C(=O)Nc3sccc3C(N)=O)n(CC(C)C)c(=O)c2c1C` (centres unmarked) [Compound 6], for which the “antifibrotic effect (col1a1 and col3a1 levels)” value in series [2] was “significant dose-dependent antifibrotic effects”. The “t1/2 human” value in series [3] (human liver microsomes) stood at 17 min. The half-life at 10 µM in series [3] (human, liver microsomes, pH 7.4, human liver microsomes, read-out: t1/2 human) is 17 to 18 min.
In the case of `CC(Sc1nc2ccccc2c(=O)n1C1CCCC1)c1nc2ccccc2n1C(F)F` (centres unmarked) [Compound 7], the “col3a1 levels in comparison with TGFβ control” value in series [1] is “significantly decreases col3a1 levels”. Further, the “antifibrotic effect (col1a1 and col3a1 levels)” value in series [2] is recorded as “significant dose-dependent antifibrotic effects”.

Values taken from patent US20240002351A1, “QUINAZOLIN-4-ONE AND THIENO[2,3-D]PYRIMIDIN-4-ONE INHIBITORS OF ERBB4 (HER4) FOR USE IN THE TREATMENT OF CANCER” (UNIVERSITEIT ANTWERPEN, priority 2021, published 2024).
